US10543272B2, “Use of aminolevulinic acid and derivatives thereof” (Photocure ASA, priority 2007, dated 2020)
Counter-ions that a name gives are not always drawn.

Legend:
Format in all cases: in vivo, human
[1] = test system: patients with facial acne vulgaris; assay: Pain during light exposure and post-PDT pain, visual analog scale (Phase II study); conditions: for Pain during light exposure, Mean: visual analog scale 0-100
Experimental: (§1) A clinical Phase II study involving 23 males and 20 females (age 18 years or more) with facial acne vulgaris (papulo-pustular acne and at least 15 inflammatory acne lesions on at least one side of the face) has been performed. Patients were randomized to receive either MAL cream on the face at a concentration of 160 mg/g (16% wt), 80 mg/g (8% wt) or 40 mg/g (4% wt). The cream was administered under occlusion. […] A light dose of 37 J/cm^2 using Photocure's Aktilite 128 LED light source was provided at a working distance between 5 and 8 cm. The average time to deliver said light dose was about 8 minutes. Safety was evaluated by medical questionnaire and adverse events, i.e., side effects, reporting. Mean pain during light exposure was evaluated by patients on a visual analog scale where 0=no pain and 100=worst possible pain.

[2] = test system: patients with facial acne vulgaris; assay: Post-PDT erythema from patient journal (Phase II study)
Experimental: as §1, with “This information” for “Safety”, “derived from the journal kept” for “evaluated”, “patients. […] There is a significant difference among the 6 groups in the duration of post PDT erythema (p=0.03). […] In fact, all” for “medical questionnaire and adverse events, i.e., side effects, reporting. Mean pain during light exposure was evaluated by”, “in the standard PDT treatment group experienced post-PDT erythema.” for “on a visual analog scale where 0=no pain and 100=worst possible pain.”

[3] = test system: patients with facial acne vulgaris; assay: Adverse events subsequent to light exposure (Phase II study)
Experimental: as §1, with “reporting. Additional data relating to the adverse events, i.e., side effects, observed subsequent to” for “reporting. Mean pain during”, “exposure during the study are shown in the table below. For” for “exposure was evaluated by”, “patients who received the standard PDT treatment, i.e., patients in the 3 h after MAL (160 mg/g) group, not only” for “patients on”, “a larger number of adverse events were observed than for the patients in any of the other groups, but the adverse events were also more severe in nature, i.e., higher numbers of moderate” for “a visual analog scale where 0=no pain”, “and severe adverse events (AEs) were observed.” for “and 100=worst possible pain.”

[4] = 160 mg/g 3 h and 80 mg/g 1.5 h groups together
[5] = 3 h, 160 mg/g (standard PDT), 7 patients

COC(=O)CCC(=O)CN [MAL, methylaminolevulinate hydrochloride]
Patients in whom light delivery had to be ended because of pain [1, 4]: 2 patients
Patients in whom light delivery had to be interrupted because of pain [1, 4]: 2 patients
Patients experiencing post-PDT pain ([1]; 0.5 h after MAL (80 mg/g)): 1 out of 6
Pain during light exposure, Mean ([1]; MAL cream 40 mg/g, 1 h before red light 37 J/cm^2): 2
Pain during light exposure, Mean ([1]; MAL cream 40 mg/g, 1.5 h before red light 37 J/cm^2): 19
Pain during light exposure, Mean ([1]; MAL cream 80 mg/g, 0.5 h before red light 37 J/cm^2): 1
Pain during light exposure, Mean ([1]; MAL cream 80 mg/g, 1 h before red light 37 J/cm^2): 9
Pain during light exposure, Mean ([1]; MAL cream 80 mg/g, 1.5 h before red light 37 J/cm^2): 32
Pain during light exposure, Mean ([1]; MAL cream 160 mg/g, 3 h before red light 37 J/cm^2 (standard PDT)): 64
Patients experiencing post-PDT pain ([1]; all other groups (40 mg/g 1 h and 1.5 h; 80 mg/g 1 h and 1.5 h)): zero
Patients experiencing post-PDT pain ([1]; standard PDT group (160 mg/g, 3 h)): 5 out of 7
Mean duration of erythema (shortest) ([2]; 40 mg/g for 1 hour): 0.5 days
Mean duration of erythema (longest) ([2]; 160 mg/g for 3 hours): 14 days
Duration of post PDT erythema, Mean ([2]; MAL cream 40 mg/g, 1 h): 4 days
n: number of patients experiencing post-PDT erythema ([2]; MAL cream 40 mg/g, 1 h, 8 patients in group): 4
Duration of post PDT erythema, Mean ([2]; MAL cream 40 mg/g, 1.5 h): 1.8 days
n: number of patients experiencing post-PDT erythema ([2]; MAL cream 40 mg/g, 1.5 h, 8 patients in group): 6
n: number of patients experiencing post-PDT erythema ([2]; MAL cream 80 mg/g, 0.5 h, 6 patients in group): 0
Duration of post PDT erythema, Mean ([2]; MAL cream 80 mg/g, 1 h): 2.1 days
n: number of patients experiencing post-PDT erythema ([2]; MAL cream 80 mg/g, 1 h, 8 patients in group): 5
Duration of post PDT erythema, Mean ([2]; MAL cream 80 mg/g, 1.5 h): 3.7 days
n: number of patients experiencing post-PDT erythema ([2]; MAL cream 80 mg/g, 1.5 h, 6 patients in group): 3
Duration of post PDT erythema, Mean ([2]; MAL cream 160 mg/g, 3 h (standard PDT)): 11.9 days
n: number of patients experiencing post-PDT erythema ([2]; MAL cream 160 mg/g, 3 h (standard PDT), 7 patients in group): 7
Patients experiencing post-PDT erythema ([2]; standard PDT treatment group (160 mg/g, 3 h)): all patients
Mild AEs Per Pat ([3]; 0.5 h, 80 mg/g): 0.6
Moderate AEs Per Pat ([3]; 0.5 h, 80 mg/g): 0
Severe AEs Per Pat ([3]; 0.5 h, 80 mg/g): 0
Total AEs Per Pat ([3]; 0.5 h, 80 mg/g): 0.667
Mild AEs ([3]; 0.5 h, 80 mg/g, 6 patients): 4
Moderate AEs ([3]; 0.5 h, 80 mg/g, 6 patients): 0
Severe AEs ([3]; 0.5 h, 80 mg/g, 6 patients): 0
Total AEs ([3]; 0.5 h, 80 mg/g, 6 patients): 4
Mild AEs Per Pat ([3]; 1 h, 40 mg/g): 1.125
Moderate AEs Per Pat ([3]; 1 h, 40 mg/g): 0
Severe AEs Per Pat ([3]; 1 h, 40 mg/g): 0
Total AEs Per Pat ([3]; 1 h, 40 mg/g): 1.125
Mild AEs ([3]; 1 h, 40 mg/g, 8 patients): 9
Moderate AEs ([3]; 1 h, 40 mg/g, 8 patients): 0
Severe AEs ([3]; 1 h, 40 mg/g, 8 patients): 0
Total AEs ([3]; 1 h, 40 mg/g, 8 patients): 9
Mild AEs Per Pat ([3]; 1 h, 80 mg/g): 1.375
Moderate AEs Per Pat ([3]; 1 h, 80 mg/g): 0
Severe AEs Per Pat ([3]; 1 h, 80 mg/g): 0
Total AEs Per Pat ([3]; 1 h, 80 mg/g): 1.375
Mild AEs ([3]; 1 h, 80 mg/g, 8 patients): 11
Moderate AEs ([3]; 1 h, 80 mg/g, 8 patients): 0
Severe AEs ([3]; 1 h, 80 mg/g, 8 patients): 0
Total AEs ([3]; 1 h, 80 mg/g, 8 patients): 11
Mild AEs Per Pat ([3]; 1.5 h, 40 mg/g): 2
Moderate AEs Per Pat ([3]; 1.5 h, 40 mg/g): 0.125
Severe AEs Per Pat ([3]; 1.5 h, 40 mg/g): 0
Total AEs Per Pat ([3]; 1.5 h, 40 mg/g): 2.125
Mild AEs ([3]; 1.5 h, 40 mg/g, 8 patients): 16
Moderate AEs ([3]; 1.5 h, 40 mg/g, 8 patients): 1
Severe AEs ([3]; 1.5 h, 40 mg/g, 8 patients): 0
Total AEs ([3]; 1.5 h, 40 mg/g, 8 patients): 17
Mild AEs Per Pat ([3]; 1.5 h, 80 mg/g): 1.5
Moderate AEs Per Pat ([3]; 1.5 h, 80 mg/g): 0.167
Severe AEs Per Pat ([3]; 1.5 h, 80 mg/g): 0.167
Total AEs Per Pat ([3]; 1.5 h, 80 mg/g): 1.833
Mild AEs ([3]; 1.5 h, 80 mg/g, 6 patients): 9
Moderate AEs ([3]; 1.5 h, 80 mg/g, 6 patients): 1
Severe AEs ([3]; 1.5 h, 80 mg/g, 6 patients): 1
Total AEs ([3]; 1.5 h, 80 mg/g, 6 patients): 11
Mild AEs Per Pat ([3]; 3 h, 160 mg/g (standard PDT)): 2.14
Moderate AEs Per Pat ([3]; 3 h, 160 mg/g (standard PDT)): 1
Severe AEs Per Pat ([3]; 3 h, 160 mg/g (standard PDT)): 0.429
Total AEs Per Pat ([3]; 3 h, 160 mg/g (standard PDT)): 3.571
Mild AEs [3, 5]: 15
Moderate AEs [3, 5]: 7
Severe AEs [3, 5]: 3
Total AEs [3, 5]: 25
Cracked skin with bleeding ([3]; standard PDT treatment, 3 h after MAL (160 mg/g), did not occur with any other treatment modality): one patient
